Results reported in the NIST ThermoML archive (doi:10.1021/je025630q).

Assay: compressibility factor (dimensionless); xn = mol fraction of the nth substance listed
Settings: Gas, Burnett expansion method

CF [fluoromethane] + O=C=O
Settings	compressibility factor
303.15 K, 126.9 kPa, x2 = 0.283	0.995
303.15 K, 139.3 kPa, x2 = 0.402	0.9955
303.15 K, 155.9 kPa, x2 = 0.59	0.9951
303.15 K, 174.7 kPa, x2 = 0.798	0.9946
303.15 K, 188.9 kPa, x2 = 0.283	0.9896
303.15 K, 207.3 kPa, x2 = 0.402	0.9896
303.15 K, 231.9 kPa, x2 = 0.59	0.9892
303.15 K, 259.9 kPa, x2 = 0.798	0.9886
303.15 K, 280.7 kPa, x2 = 0.283	0.9823
303.15 K, 308 kPa, x2 = 0.402	0.9821
303.15 K, 344.5 kPa, x2 = 0.59	0.9815
303.15 K, 386 kPa, x2 = 0.798	0.9807
303.15 K, 415.8 kPa, x2 = 0.283	0.9721
303.15 K, 456.1 kPa, x2 = 0.402	0.9715
303.15 K, 510 kPa, x2 = 0.59	0.9708
303.15 K, 571.5 kPa, x2 = 0.798	0.97
303.15 K, 613.1 kPa, x2 = 0.283	0.9576
303.15 K, 672.2 kPa, x2 = 0.402	0.9564
303.15 K, 751.4 kPa, x2 = 0.59	0.9555
303.15 K, 842 kPa, x2 = 0.798	0.9547
303.15 K, 897.8 kPa, x2 = 0.283	0.9368
303.15 K, 983.5 kPa, x2 = 0.402	0.9349
303.15 K, 1099.1 kPa, x2 = 0.59	0.9337
303.15 K, 1231.1 kPa, x2 = 0.798	0.9326
303.15 K, 1300.8 kPa, x2 = 0.283	0.9066
303.15 K, 1423.2 kPa, x2 = 0.402	0.9038
303.15 K, 1589.6 kPa, x2 = 0.59	0.9021
303.15 K, 1779.6 kPa, x2 = 0.798	0.9006
303.15 K, 1854.5 kPa, x2 = 0.283	0.8635
303.15 K, 2025.1 kPa, x2 = 0.402	0.8591
303.15 K, 2259.3 kPa, x2 = 0.59	0.8566
303.15 K, 2527 kPa, x2 = 0.798	0.8543
303.15 K, 2578.9 kPa, x2 = 0.283	0.8022
303.15 K, 2808.4 kPa, x2 = 0.402	0.7959
303.15 K, 3127.5 kPa, x2 = 0.59	0.7921
303.15 K, 3455.9 kPa, x2 = 0.283	0.7182
303.15 K, 3491.8 kPa, x2 = 0.798	0.7886
303.15 K, 3745.5 kPa, x2 = 0.402	0.7091
303.15 K, 4156.5 kPa, x2 = 0.59	0.7033
303.15 K, 4628.3 kPa, x2 = 0.798	0.6983
313.15 K, 128.9 kPa, x2 = 0.206	0.9928
313.15 K, 139.2 kPa, x2 = 0.778	1
313.15 K, 156.2 kPa, x2 = 0.593	0.9925
313.15 K, 175 kPa, x2 = 0.408	0.9921
313.15 K, 192.3 kPa, x2 = 0.206	0.9894
313.15 K, 207.3 kPa, x2 = 0.778	0.9946
313.15 K, 233 kPa, x2 = 0.593	0.989
313.15 K, 260.7 kPa, x2 = 0.408	0.9874
313.15 K, 286.2 kPa, x2 = 0.206	0.9837
313.15 K, 308.2 kPa, x2 = 0.778	0.9881
313.15 K, 346.7 kPa, x2 = 0.593	0.9829
313.15 K, 387.2 kPa, x2 = 0.408	0.9799
313.15 K, 424.5 kPa, x2 = 0.206	0.9746
313.15 K, 457.5 kPa, x2 = 0.778	0.9798
313.15 K, 514.3 kPa, x2 = 0.593	0.974
313.15 K, 573.2 kPa, x2 = 0.408	0.9689
313.15 K, 626.8 kPa, x2 = 0.206	0.9613
313.15 K, 676.8 kPa, x2 = 0.778	0.9683
313.15 K, 759.4 kPa, x2 = 0.593	0.9608
313.15 K, 843.8 kPa, x2 = 0.408	0.9529
313.15 K, 919.1 kPa, x2 = 0.206	0.9417
313.15 K, 996 kPa, x2 = 0.778	0.9519
313.15 K, 1113.9 kPa, x2 = 0.593	0.9415
313.15 K, 1231.8 kPa, x2 = 0.408	0.9293
313.15 K, 1334.2 kPa, x2 = 0.206	0.9132
313.15 K, 1453.8 kPa, x2 = 0.778	0.9282
313.15 K, 1617 kPa, x2 = 0.593	0.913
313.15 K, 1775.9 kPa, x2 = 0.408	0.895
313.15 K, 1907.6 kPa, x2 = 0.206	0.8722
313.15 K, 2096.6 kPa, x2 = 0.778	0.8943
313.15 K, 2311.9 kPa, x2 = 0.593	0.8721
313.15 K, 2512.5 kPa, x2 = 0.408	0.846
313.15 K, 2665.8 kPa, x2 = 0.206	0.8143
313.15 K, 2967.7 kPa, x2 = 0.778	0.8457
313.15 K, 3229.5 kPa, x2 = 0.593	0.8138
313.15 K, 3455.2 kPa, x2 = 0.408	0.7772
313.15 K, 3600.8 kPa, x2 = 0.206	0.7348
313.15 K, 4083.3 kPa, x2 = 0.778	0.7773
313.15 K, 4357.3 kPa, x2 = 0.593	0.7335
313.15 K, 4556.4 kPa, x2 = 0.408	0.6847
313.15 K, 4622.8 kPa, x2 = 0.206	0.6302
313.15 K, 5382.3 kPa, x2 = 0.778	0.6845
313.15 K, 5581 kPa, x2 = 0.593	0.6277
313.15 K, 5645.6 kPa, x2 = 0.408	0.5668
323.15 K, 133.2 kPa, x2 = 0.378	0.9948
323.15 K, 137 kPa, x2 = 0.791	0.995
323.15 K, 142.6 kPa, x2 = 0.619	0.9967
323.15 K, 156.6 kPa, x2 = 0.189	0.9918
323.15 K, 198.7 kPa, x2 = 0.378	0.9914
323.15 K, 204.4 kPa, x2 = 0.791	0.9921
323.15 K, 212.6 kPa, x2 = 0.619	0.9926
323.15 K, 233.4 kPa, x2 = 0.189	0.9875
323.15 K, 295.9 kPa, x2 = 0.378	0.986
323.15 K, 304.7 kPa, x2 = 0.791	0.9877
323.15 K, 316.4 kPa, x2 = 0.619	0.9871
323.15 K, 347.1 kPa, x2 = 0.189	0.9809
323.15 K, 439.4 kPa, x2 = 0.378	0.9783
323.15 K, 453 kPa, x2 = 0.791	0.9812
323.15 K, 469.9 kPa, x2 = 0.619	0.9793
323.15 K, 514.3 kPa, x2 = 0.189	0.971
323.15 K, 650.1 kPa, x2 = 0.378	0.967
323.15 K, 671.5 kPa, x2 = 0.791	0.9715
323.15 K, 695.4 kPa, x2 = 0.619	0.9682
323.15 K, 758.3 kPa, x2 = 0.189	0.9564
323.15 K, 956.3 kPa, x2 = 0.378	0.9502
323.15 K, 990.6 kPa, x2 = 0.791	0.9574
